Measurements reported in patent US5356935A, “Reduced phenanthrenes” (Eli Lilly and Company, priority 1993, dated 1994).

Key:
[1] = target: T1, Type I 5α-reductase (Homo sapiens, UniProt P18405); assay: Human Type I steroid 5α-reductase assay (human scalp enzyme, [3H]-testosterone conversion); assay type: biochemical; details: compared to control reaction mixtures, read-out: percent inhibition of Type I 5AR; for inhibition at 0.01 µM: compound concentration .01 μM; for inhibition at 0.03 µM: compound concentration .03 μM; for inhibition at 0.1 µM: compound concentration .1 μM
T1 construct: Scalp punch biopsies from graft recipient sites were obtained from human hair transplant procedures; from tissue; host or cells: human scalp punch biopsies (pooled, 60-75 punches from one surgical procedure), 100,000×g pellet of homogenate
T1 sequence (P18405 1-259): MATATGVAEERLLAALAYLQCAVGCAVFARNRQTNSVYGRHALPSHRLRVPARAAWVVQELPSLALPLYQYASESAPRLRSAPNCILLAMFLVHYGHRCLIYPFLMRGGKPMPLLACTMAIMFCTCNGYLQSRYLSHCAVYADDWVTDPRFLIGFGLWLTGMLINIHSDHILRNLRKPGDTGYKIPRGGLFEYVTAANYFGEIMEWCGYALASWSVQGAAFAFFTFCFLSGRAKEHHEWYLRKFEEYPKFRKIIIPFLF
Procedure: Scalp punch biopsies from graft recipient sites were obtained from human hair transplant procedures immediately after surgery and were frozen on dry ice and stored at -80° C. Approximately 60-75 punches from one surgical procedure were used to generate an enzyme preparation. The subcutaneous tissue was cut away and discarded. The skin was frozen with liquid nitrogen and pulverized to powder. The powder was homogenized in 30 ml of ice-cold buffer (20 mM Tris-HCl, pH 7.5) using a Brinkmann Polytron (Westbury, N.Y.) with a PTA 10-S robe and a setting of 7. The homogenization procedure consisted of four 15 second pulses. Connective tissue was cleared from the probe with forceps between pulses. The homogenate was then filtered through cheese cloth and the filtrate centrifuged at 100,000×g for one hour in a Beckman L8-60M ultracentrifuge. The pellet was resuspended by homogenization with a Dounce homogenizer using the same buffer solution. An aliquot was taken for protein determination by the Lowry method, Lowry, et al., Protein Measurement with the Folin Phenol Reagent, J. Biol. Chem., 193,265-75 (1951). Aliquots of the enzyme preparation were stored at -80° until use.
(§1) This enzyme assay is based on the conversion of [^3 H]-testosterone to [^3 H]-5α-dihydrotestosterone (DHT) and other 5α-reduced metabolites. While about 90% of the 5α-reduced metabolites formed in these assays was DHT, androstanedione was formed at about 10%. Essentially no androsterone was detected. In a total volume of 1.0 ml, the assay contained 2.6 μCi [^3 H]-testosterone (50 nM), 500 μM of reduced nicotine adeninc dinucleotide phosphate, 100 mM Tris-HCl, pH 7.5, (in Type II assays, 40 mM sodium acetate at pH 5.5 is used instead of Tris-HCl) and test compounds as indicated. Test compounds were added in 20 μl of dimethylsulfoxide (20 μl of dimethylsulfoxide was added to blanks and controls). The reaction was initiated by the addition of 0.5 mg of Type I or Type II 5α-reductase. The reaction mixture was incubated for 30 min at 25° and terminated by the addition of 1 ml ice-cold stopping solution. The stopping solution contained 40 μM each of non-radioactivetestosterone, DHT, androstenedione, androstanedione, androsterone, androstan-3β,17β-diol, and androstan-3α,17β-diol.
(§2) The samples were prepared for high performance liquid chromatography by solid phase extraction. Disposable solid matrix extraction columns (C-18 reversed;phase, 6 ml, 500 mg; Bond Elut™ from Analytichem International; Harbor City, Calif.) were conditioned by washing with 5 ml of methanol followed by 5 ml of deionized water. The reaction mixtures were then applied to the columns. The columns were subsequently washed with 5 ml of acetone:water (1:4), followed by 0.3 ml of methanol. The samples were then eluted with 3 ml of methanol and collected in 20 ml scintillation vials. Three ml of water was then added to each scintillation vial. The solutions were then transferred to tubes and centrifuged for 30 min at 1000×g to remove any particulate material before chromatography.
(§3) The [^3 H]-testosterone substrate and its metabolites were separated by chromatography using a C-18 reversed phase column (Beckman Ultrasphere 5 μm spherical 80A pore, part no. 235329, 4.6 mm i.d.×[…]) with an isocratic mobile phase (46 water: 46 methanol: 8 tetrahydrofuran by volume). The column temperature was maintained at 35° and the flow rate was 1.5 ml/min. A 400 μl aliquot was injected onto the column and radioactivity was determined using a Beckman 171 in-line flow radioisotope detector in conjunction with Rainin Dynamax™ software and a Macintosh computer. The flow rate of the Atomflow™ scintillation fluid was 4.5 ml / min.

[2] = target: T2, Type II 5α-reductase (Homo sapiens, UniProt P31213); assay: Human Type II steroid 5α-reductase assay (human prostate enzyme, [3H]-testosterone conversion); assay type: biochemical; details: compared to control reaction mixtures, read-out: percent inhibition of Type II 5AR; for inhibition at 1 µM: compound concentration 1 μM; for inhibition at 3 µM: compound concentration 3 μM; for inhibition at 10 µM: compound concentration 10 μM; for inhibition at 0.3 µM: compound concentration .3 μM
T2 construct: from tissue; host or cells: human prostate tissue from surgery, 100,000×g pellet of homogenate
T2 sequence (P31213 1-254): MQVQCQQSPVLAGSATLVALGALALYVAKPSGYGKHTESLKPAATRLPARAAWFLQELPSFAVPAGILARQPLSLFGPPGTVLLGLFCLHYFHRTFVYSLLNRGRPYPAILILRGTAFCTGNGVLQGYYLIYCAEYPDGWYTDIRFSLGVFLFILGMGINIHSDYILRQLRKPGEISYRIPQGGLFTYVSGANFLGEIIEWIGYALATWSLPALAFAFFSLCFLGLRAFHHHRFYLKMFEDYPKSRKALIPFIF
Procedure: The same procedure as above was used for preparations using tissue from prostate surgery with the following changes: The buffer used was 20 mM sodium phosphate, pH 6.5; and the pellet was resuspended in the sodium phosphate buffer containing 20% glycerol.
as §1, §2, §3

Row | inhibition at 0.01 µM [1] [%] | inhibition at 0.03 µM [1] [%] | inhibition at 0.1 µM [1] [%] | inhibition at 1 µM [2] [%] | inhibition at 3 µM [2] [%] | inhibition at 10 µM [2] [%] | inhibition at 0.3 µM [2] [%] | SMILES
1 | 0 | 35 | 42 | 55 | 49 | 63 | 47 | C[C@]12CCC(=O)C(N)=C1CCc1cc(Cl)ccc12 [Example 1, (R)-1-amino-7-chloro-4,4a,9,10-tetrahydro-4a-methyl-2(3H)-phenanthreneone]
2 | 0 | 3 | 26 | 16 | 33 | 36 | 7 | C[C@]12CCC(=O)C(N)=C1C=Cc1cc(Cl)ccc12 [Example 2, (R)-1-amino-7-chloro-4,4a-dihydro-4a-methyl-2(3H)-phenanthreneone]
